According to patent US20240374598A1, “INHIBITORS OF HUMAN IMMUNODEFICIENCY VIRUS REPLICATION” (ViiV HEALTHCARE UK (NO.5) LIMITED, priority 2018, published 2024):
pEC50: −log10 of the molar value.

Tests used:
[1] = Compound cytotoxicity, XTT-based colorimetric assay; assay type: cell-based; details: human; uninfected MT2 cells, day 4, XTT assay
Protocol: Compound cytotoxicity and the corresponding CC50 values were determined using the same protocol as described in the antiviral assay except that uninfected cells were used. Cytotoxicity was assessed on day 4 in uninfected MT2 cells by using a XTT (2,3-bis[2-Methoxy-4-nitro-5-sulfophenyl]-2H-tetrazolium-5-carboxyanilide inner salt)-based colorimetric assay (Sigma-Aldrich, St Louis, Mo).

[2] = tested on: recombinant NL4-3 virus (nef section replaced with Renilla luciferase gene) in MT-2 cells; assay: HIV cell culture assay (antiviral activity, luciferase readout); assay type: cell-based; details: NL43, MT-2 cells infected for 4-5 days with recombinant NL4-3 Renilla luciferase virus
Protocol: HIV cell culture assay—MT-2 cells, 293T cells and the proviral DNA clone of NL4-3 virus were obtained from the NIH AIDS Research and Reference Reagent Program. MT-2 cells were propagated in RPMI 1640 media supplemented with 10% heat inactivated fetal bovine serum (FBS), […]. The 293T cells were propagated in DMEM media supplemented with 10% heat inactivated FBS, […]. A recombinant NL4-3 proviral clone, in which a section of the nef gene was replaced with the Renilla luciferase gene, was used to make the reference virus used in these studies. The recombinant virus was prepared through transfection of the recombinant NL4-3 proviral clone into 293T cells using Transit-293 Transfection Reagent from Mirus Bio LLC (Madison, WI). Supernatent was harvested after 2-3 days and the amount of virus present was titered in MT-2 cells using luciferase enzyme activity as a marker by measuring luciferase enzyme activity. Luciferase was quantitated using the EnduRen Live Cell Substrate from Promega (Madison, WI). Antiviral activities of compounds toward the recombinant virus were quantified by measuring luciferase activity in MT-2 cells infected for 4-5 days with the recombinant virus in the presence of serial dilutions of the compound.
The 50% effective concentration (EC50) was calculated by using the exponential form of the median effect equation where (Fa)=1/[1+(ED50/drug conc.)m] (Johnson VA, Byington RT. Infectivity Assay. In Techniques in HIV Research. ed. Aldovini A, Walker BD. 71-76. New York: Stockton Press. 1990). The 50% inhibitory concentration (EC50) was calculated by using the exponential form of the median effect equation where percent inhibition=1/[1+(EC50/drug concentration)m], where m is a parameter that reflects the slope of the concentration-response curve.

Which results are given for `COc1nc2nc([C@H](Cc3cc(F)cc(F)c3)NC(=O)Cn3nc(C(F)F)c4c3C(F)(F)C3CC43)n(-c3ccc(Cl)c4c(NS(C)(=O)=O)nn(C)c34)c(=O)c2cc1Cl` (stereo in doubt) [Example 37, N—((S)-1-(6-chloro-3-(4-chloro-1-methyl-3-(methylsulfonamido)-1H-indazol-7-yl)-7-methoxy-4-oxo-3,4-dihydropyrido[2,3-d]pyrimidin-2-yl)-2-(3,5-difluorophenyl)ethyl)-2-((3bS,4aR)-3-(difluoromethyl)-5,5-difluoro-3b,4,4a,5-tetrahydro-1H-cyclopropa[3,4]cyclopenta[1,2-c]pyrazol-1-yl)acetamide]?
CC50 at 4 day [1]: > 1000 nM; pEC50 [2]: 10.36

What does the source list for `CC(C)Oc1ccc2c(=O)n(-c3ccc(Cl)c4c(NS(C)(=O)=O)nn(C)c34)c([C@H](Cc3cc(F)cc(F)c3)NC(=O)Cn3nc(C(F)F)c4c3C(F)(F)C3CC43)nc2n1` (stereo in doubt) [Example 38, N—((S)-1-(3-(4-chloro-1-methyl-3-(methylsulfonamido)-1H-indazol-7-yl)-7-isopropoxy-4-oxo-3,4-dihydropyrido[2,3-d]pyrimidin-2-yl)-2-(3,5-difluorophenyl)ethyl)-2-((3bS,4aR)-3-(difluoromethyl)-5,5-difluoro-3b,4,4a,5-tetrahydro-1H-cyclopropa[3,4]cyclopenta[1,2-c]pyrazol-1-yl)acetamide]?
CC50 at 4 day [1]: > 1000 nM; pEC50 [2]: 10.35

What does the source list for `COc1cnc2c(=O)n(-c3ccc(Cl)c4c(NS(C)(=O)=O)nn(C)c34)c([C@H](Cc3cc(F)cc(F)c3)NC(=O)Cn3nc(C(F)F)c4c3C(F)(F)C3CC43)nc2c1` (stereo in doubt) [Example 39, N—((S)-1-(3-(4-chloro-1-methyl-3-(methylsulfonamido)-1H-indazol-7-yl)-7-methoxy-4-oxo-3,4-dihydropyrido[3,2-d]pyrimidin-2-yl)-2-(3,5-difluorophenyl)ethyl)-2-((3bS,4aR)-3-(difluoromethyl)-5,5-difluoro-3b,4,4a,5-tetrahydro-1H-cyclopropa[3,4]cyclopenta[1,2-c]pyrazol-1-yl)acetamide]?
CC50 at 4 day [1]: > 1000 nM; pEC50 [2]: 10.80

Which CC50 at 4 day [1] does the source give for `Cn1nc(NS(C)(=O)=O)c2c(Cl)ccc(-n3c([C@H](Cc4cc(F)cc(F)c4)NC(=O)Cn4nc(C(F)F)c5c4C(F)(F)[C@@H]4C[C@H]54)nc4cc(Br)ccc4c3=O)c21` [Example 1, N—((S)-1-(7-bromo-3-(4-chloro-1-methyl-3-(methylsulfonamido)-1H-indazol-7-yl)-4-oxo-3,4-dihydroquinazolin-2-yl)-2-(3,5-difluorophenyl)ethyl)-2-((3bS,4aR)-3-(difluoromethyl)-5,5-difluoro-3b,4,4a,5-tetrahydro-1H-cyclopropa[3,4]cyclopenta[1,2-c]pyrazol-1-yl)acetamide] here?
Its CC50 at 4 day is greater than 1000 nM.

What about the pEC50 [2] of the same compound?
Its pEC50 is 10.34.

Which CC50 at 4 day [1] does the source give for `Cn1nc(NS(C)(=O)=O)c2c(Cl)ccc(-n3c([C@H](Cc4cc(F)cc(F)c4)NC(=O)Cn4nc(C(F)F)c5c4C(F)(F)[C@@H]4C[C@H]54)nc4cc(O)ccc4c3=O)c21` [Example 4, N—((S)-1-(3-(4-chloro-1-methyl-3-(methylsulfonamido)-1H-indazol-7-yl)-7-hydroxy-4-oxo-3,4-dihydroquinazolin-2-yl)-2-(3,5-difluorophenyl)ethyl)-2-((3bS,4aR)-3-(difluoromethyl)-5,5-difluoro-3b,4,4a,5-tetrahydro-1H-cyclopropa[3,4]cyclopenta[1,2-c]pyrazol-1-yl)acetamide] here?
The CC50 at 4 day was greater than 1000 nM.

What about the pEC50 [2] of the same compound?
Its pEC50 is 9.56.

Which results are given for `COc1ccc2c(=O)n(-c3ccc(Cl)c4c(NS(C)(=O)=O)nn(C)c34)c([C@H](Cc3cc(F)cc(F)c3)NC(=O)Cn3ccc(C(C)C)n3)nc2c1` [Example 5, (S)—N-(1-(3-(4-chloro-1-methyl-3-(methylsulfonamido)-1H-indazol-7-yl)-7-methoxy-4-oxo-3,4-dihydroquinazolin-2-yl)-2-(3,5-difluorophenyl)ethyl)-2-(3-isopropyl-1H-pyrazol-1-yl)acetamide]?
CC50 at 4 day [1]: > 1000 nM; pEC50 [2]: 9.12

What does the source list for `COc1ccc2c(=O)n(-c3ccc(Cl)c4c(NS(C)(=O)=O)nn(C)c34)c([C@H](Cc3cc(F)cc(F)c3)NC(=O)Cn3ccc(C4CC4)n3)nc2c1` [Example 6, (S)—N-(1-(3-(4-chloro-1-methyl-3-(methylsulfonamido)-1H-indazol-7-yl)-7-methoxy-4-oxo-3,4-dihydroquinazolin-2-yl)-2-(3,5-difluorophenyl)ethyl)-2-(3-cyclopropyl-1H-pyrazol-1-yl)acetamide]?
CC50 at 4 day [1]: > 1000 nM; pEC50 [2]: 9.46

Which results are given for `COc1ccc2c(=O)n(-c3ccc(Cl)c4c(NS(C)(=O)=O)nn(C)c34)c([C@H](Cc3cc(F)cc(F)c3)NC(=O)Cn3ccc(C4CCC4)n3)nc2c1` [Example 7, (S)—N-(1-(3-(4-chloro-1-methyl-3-(methylsulfonamido)-1H-indazol-7-yl)-7-methoxy-4-oxo-3,4-dihydroquinazolin-2-yl)-2-(3,5-difluorophenyl)ethyl)-2-(3-cyclobutyl-1H-pyrazol-1-yl)acetamide]?
CC50 at 4 day [1]: > 1000 nM; pEC50 [2]: 9.05

For `COc1cc(F)c2c(=O)n(-c3ccc(Cl)c4c(NS(=O)(=O)C5CC5)nn(CC(F)F)c34)c([C@H](Cc3cc(F)cc(F)c3)NC(=O)Cn3nc(C(F)F)c4c3C(F)(F)[C@@H]3C[C@H]43)nc2c1` [Example 8, N—((S)-1-(3-(4-chloro-3-(cyclopropanesulfonamido)-1-(2,2-difluoroethyl)-1H-indazol-7-yl)-5-fluoro-7-methoxy-4-oxo-3,4-dihydroquinazolin-2-yl)-2-(3,5-difluorophenyl)ethyl)-2-((3bS,4aR)-3-(difluoromethyl)-5,5-difluoro-3b,4,4a,5-tetrahydro-1H-cyclopropa[3,4]cyclopenta[1,2-c]pyrazol-1-yl)acetamide], which CC50 at 4 day [1] is on record?
The CC50 at 4 day was greater than 1000 nM.

What about the pEC50 [2] of the same compound?
Its pEC50 is 9.82.

Which results are given for `Cn1nc(NS(C)(=O)=O)c2c(Cl)ccc(-n3c([C@H](Cc4cc(F)cc(F)c4)NC(=O)Cn4nc(C(F)F)c5c4C(F)(F)[C@@H]4C[C@H]54)nc4cc(OCCCF)ccc4c3=O)c21` [Example 9, N—((S)-1-(3-(4-chloro-1-methyl-3-(methylsulfonamido)-1H-indazol-7-yl)-7-(3-fluoropropoxy)-4-oxo-3,4-dihydroquinazolin-2-yl)-2-(3,5-difluorophenyl)ethyl)-2-((3bS,4aR)-3-(difluoromethyl)-5,5-difluoro-3b,4,4a,5-tetrahydro-1H-cyclopropa[3,4]cyclopenta[1,2-c]pyrazol-1-yl)acetamide]?
CC50 at 4 day [1]: > 1000 nM; pEC50 [2]: 10.31

Which CC50 at 4 day [1] does the source give for `CC(C)(C)c1ccc2c(=O)n(-c3ccc(Cl)c4c(NS(C)(=O)=O)nn(CC(F)(F)F)c34)c([C@H](Cc3cc(F)cc(F)c3)NC(=O)Cn3nc(C(F)F)c4c3C(F)(F)[C@@H]3C[C@H]43)nc2c1` [Example 28, N—((S)-1-(7-(tert-butyl)-3-(4-chloro-3-(methylsulfonamido)-1-(2,2,2-trifluoroethyl)-1H-indazol-7-yl)-4-oxo-3,4-dihydroquinazolin-2-yl)-2-(3,5-difluorophenyl)ethyl)-2-((3bS,4aR)-3-(difluoromethyl)-5,5-difluoro-3b,4,4a,5-tetrahydro-1H-cyclopropa[3,4]cyclopenta[1,2-c]pyrazol-1-yl)acetamide] here?
Its CC50 at 4 day is greater than 1000 nM.
